We go through 40 compounds from patent US20230123334A1, “AMINO LIPID COMPOUND, PREPARATION METHOD THEREFOR, AND APPLICATION THEREOF” (SHENZHEN SHENXIN BIOTECHNOLOGY CO., LTD., priority 2020, published 2023).

The structures appear in SMILES notation.

Experiment [1] relates to HEK293 cells. As to the kind of experiment: Preliminary screening as DNA vectors, GFP transfection of HEK293 cells. In kind it is cell-based. The note with it: HEK293 cells; lipid/DOPE liposome with 75 ng plasmid DNA (psin-EGFP-IRES-Puro); number of cells expressing GFP divided by total number of nuclei (Hoechst). In outline: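 Lipid + DOPE liposomes (NaOAc, pH 5.6) complexed w/ 75 ng psin-EGFP-IRES-Puro, 30 min RT; added to 3-5×10^4 HEK293/well, 37° C. Hoechst 0.2 μg/mL at 20-24 h, imaged after further 20-24 h. Efficiency = GFP+ cells / total nuclei.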

Experiment [2] has as its system HEK293 cells. As to the kind of experiment: Preliminary screening as mRNA vectors, EGFP mRNA transfection of HEK293 cells. In kind it is cell-based. The following applies: HEK293 cells, 96-well plates, EGFP mRNA 50 ng per well; percentage of GFP fluorescent cells relative to total number of cells (Hoechst). In short, it runs like this: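 Each well of HEK293 cells received 50 ng of EGFP mRNA. Efficiency was expressed as percent GFP-expressing cells over Hoechst-defined total cell number.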

With `CCCCCCCCCCCCCCCCCCSc1nc(NCCN(C)C)nc(SCCCCCCCCCCCCCC)n1` [Compound S14S18D1], the “Absolute DNA transfection efficiency in HEK293 cells” value (shortened to “Absolute DNA transfection efficiency”) with HEK293 cells [1] was 0.0%. Further, in the experiment with HEK293 cells [2], the “Absolute mRNA transfection efficiency in HEK293 cells” value (“Absolute mRNA transfection efficiency” for short) was found to be 0.0%.
Take `CCCCCCCCCCCCCCCCCCSc1nc(NCCN2CCOCC2)nc(SCCCCCCCCCCCCCC)n1` [Compound S14S18D2]: the “Absolute DNA transfection efficiency” value with HEK293 cells [1] turned out to be 0.2%. For the same compound, the “Absolute mRNA transfection efficiency” value in the experiment on HEK293 cells [2] came out at 0.0%.
Taken in the same sequence, the figures for `CCCCCCCCCCCCCCCCCCSc1nc(NCCN2CCCC2)nc(SCCCCCCCCCCCCCC)n1` [Compound S14S18D3] were 2.8% and 0.1%.
The like results for `CCCCCCCCCCCCCCCCCCSc1nc(NCCN2CCCCC2)nc(SCCCCCCCCCCCCCC)n1` [Compound S14S18D4] were, in that order, 2.5% and 0.8%.
The like results for `CCCCCCCCCCCCCCCCCCSc1nc(NCCN2CCN(C)CC2)nc(SCCCCCCCCCCCCCC)n1` [Compound S14S18D5] were, in that order, 0.2% and 1.0%.
Turning to `CCCCCCCCCCCCCCCCCCSc1nc(NCCCN(C)C)nc(SCCCCCCCCCCCCCC)n1` [Compound S14S18D6], in the experiment with HEK293 cells [1], the “Absolute DNA transfection efficiency” value was found to be 1.2%. Further, the “Absolute mRNA transfection efficiency” value in the experiment on HEK293 cells [2] is 0.2%.
The like results for `CCCCCCCCCCCCCCCCCCSc1nc(NCCN(CC)CC)nc(SCCCCCCCCCCCCCC)n1` [Compound S14S18D7] were, in that order, 0.9% and 2.7%.
Taken in the same sequence, the figures for `CCCCCCCCCCCCCCCCCCSc1nc(NCCCN2CCOCC2)nc(SCCCCCCCCCCCCCC)n1` [Compound S14S18D8] were 0.2% and 0.3%.
For `CCCCCCCCCCCCCCCCCCSc1nc(NCCCN2CCN(C)CC2)nc(SCCCCCCCCCCCCCC)n1` [Compound S14S18D9], the “Absolute DNA transfection efficiency” value in the experiment on HEK293 cells [1] came to 0.5%. Also, the “Absolute mRNA transfection efficiency” value in the experiment with HEK293 cells [2] stood at 0.6%.
Take `CCCCCCCCCCCCCCCCCCSc1nc(NCC2CCN(C)CC2)nc(SCCCCCCCCCCCCCC)n1` [Compound S14S18D10]: the “Absolute DNA transfection efficiency” value in the experiment on HEK293 cells [1] is reported as 1.7%. Further, in the experiment with HEK293 cells [2], the “Absolute mRNA transfection efficiency” value was 1.5%.
Consider `CCCCCCCCCCCCCCCSc1nc(NCCN(C)C)nc(SCCCCCCCCCCCCCCC)n1` [Compound S15S15D1], for which the “Absolute DNA transfection efficiency” value in the experiment on HEK293 cells [1] was determined as 1.0%. The “Absolute mRNA transfection efficiency” value with HEK293 cells [2] came to 0.5%.
For `CCCCCCCCCCCCCCCSc1nc(NCCN2CCOCC2)nc(SCCCCCCCCCCCCCCC)n1` [Compound S15S15D2], the “Absolute DNA transfection efficiency” value in the experiment with HEK293 cells [1] was determined as 0.0%. For the same compound, the “Absolute mRNA transfection efficiency” value in the experiment on HEK293 cells [2] worked out at 0.0%.
For `CCCCCCCCCCCCCCCSc1nc(NCCN2CCCC2)nc(SCCCCCCCCCCCCCCC)n1` [Compound S15S15D3], the “Absolute DNA transfection efficiency” value with HEK293 cells [1] is 0.0%. Also, the “Absolute mRNA transfection efficiency” value in the experiment on HEK293 cells [2] is recorded as 0.2%.
The like results for `CCCCCCCCCCCCCCCSc1nc(NCCN2CCCCC2)nc(SCCCCCCCCCCCCCCC)n1` [Compound S15S15D4] were, in that order, 1.5% and 1.5%.
Taken in the same sequence, the figures for `CCCCCCCCCCCCCCCSc1nc(NCCN2CCN(C)CC2)nc(SCCCCCCCCCCCCCCC)n1` [Compound S15S15D5] were 0.3% and 0.3%.
Taken in the same sequence, the figures for `CCCCCCCCCCCCCCCSc1nc(NCCCN(C)C)nc(SCCCCCCCCCCCCCCC)n1` [Compound S15S15D6] were 0.4% and 0.9%.
As for `CCCCCCCCCCCCCCCSc1nc(NCCN(CC)CC)nc(SCCCCCCCCCCCCCCC)n1` [Compound S15S15D7], the “Absolute DNA transfection efficiency” value in the experiment with HEK293 cells [1] worked out at 0.6%. In the experiment with HEK293 cells [2], the “Absolute mRNA transfection efficiency” value came to 0.5%.
`CCCCCCCCCCCCCCCSc1nc(NCCCN2CCOCC2)nc(SCCCCCCCCCCCCCCC)n1` [Compound S15S15D8]: the “Absolute DNA transfection efficiency” value in the experiment with HEK293 cells [1] came out at 0.0%. The “Absolute mRNA transfection efficiency” value in the experiment with HEK293 cells [2] was 0.2%.
Taken in the same sequence, the figures for `CCCCCCCCCCCCCCCSc1nc(NCCCN2CCN(C)CC2)nc(SCCCCCCCCCCCCCCC)n1` [Compound S15S15D9] were 0.4% and 0.5%.
For `CCCCCCCCCCCCCCCSc1nc(NCC2CCN(C)CC2)nc(SCCCCCCCCCCCCCCC)n1` [Compound S15S15D10], the “Absolute DNA transfection efficiency” value in the experiment with HEK293 cells [1] is 1.0%. In addition, in the experiment with HEK293 cells [2], the “Absolute mRNA transfection efficiency” value was 0.3%.
The like results for `CCCCCCCCCCCCCCCCSc1nc(NCCN(C)C)nc(SCCCCCCCCCCCCCCC)n1` [Compound S15S16D1] were, in that order, 1.7% and 0.7%.
Taken in the same sequence, the figures for `CCCCCCCCCCCCCCCCSc1nc(NCCN2CCOCC2)nc(SCCCCCCCCCCCCCCC)n1` [Compound S15S16D2] were 0.0% and 0.7%.
Take `CCCCCCCCCCCCCCCCSc1nc(NCCN2CCCC2)nc(SCCCCCCCCCCCCCCC)n1` [Compound S15S16D3]: in the experiment with HEK293 cells [1], the “Absolute DNA transfection efficiency” value was 0.1%. In addition, the “Absolute mRNA transfection efficiency” value with HEK293 cells [2] is recorded as 0.2%.
On to `CCCCCCCCCCCCCCCCSc1nc(NCCN2CCCCC2)nc(SCCCCCCCCCCCCCCC)n1` [Compound S15S16D4], for which, in the experiment on HEK293 cells [1], the “Absolute DNA transfection efficiency” value was 2.0%. Moreover, in the experiment on HEK293 cells [2], the “Absolute mRNA transfection efficiency” value came out at 3.2%.
Take `CCCCCCCCCCCCCCCCSc1nc(NCCN2CCN(C)CC2)nc(SCCCCCCCCCCCCCCC)n1` [Compound S15S16D5]: in the experiment with HEK293 cells [1], the “Absolute DNA transfection efficiency” value was 0.2%. For the same compound, the “Absolute mRNA transfection efficiency” value in the experiment on HEK293 cells [2] is reported as 0.2%.
`CCCCCCCCCCCCCCCCSc1nc(NCCCN(C)C)nc(SCCCCCCCCCCCCCCC)n1` [Compound S15S16D6]: the “Absolute DNA transfection efficiency” value in the experiment with HEK293 cells [1] came to 0.2%. Besides, the “Absolute mRNA transfection efficiency” value with HEK293 cells [2] amounted to 0.4%.
The like results for `CCCCCCCCCCCCCCCCSc1nc(NCCN(CC)CC)nc(SCCCCCCCCCCCCCCC)n1` [Compound S15S16D7] were, in that order, 0.6% and 0.4%.
Taken in the same sequence, the figures for `CCCCCCCCCCCCCCCCSc1nc(NCCCN2CCOCC2)nc(SCCCCCCCCCCCCCCC)n1` [Compound S15S16D8] were 0.0% and 0.0%.
The like results for `CCCCCCCCCCCCCCCCSc1nc(NCCCN2CCN(C)CC2)nc(SCCCCCCCCCCCCCCC)n1` [Compound S15S16D9] were, in that order, 0.3% and 0.5%.
`CCCCCCCCCCCCCCCCSc1nc(NCC2CCN(C)CC2)nc(SCCCCCCCCCCCCCCC)n1` [Compound S15S16D10]: the “Absolute DNA transfection efficiency” value with HEK293 cells [1] amounted to 0.6%. Further, the “Absolute mRNA transfection efficiency” value in the experiment with HEK293 cells [2] is 0.6%.
As for `CCCCCCCCCCCCCCCCCCSc1nc(NCCN(C)C)nc(SCCCCCCCCCCCCCCC)n1` [Compound S15S18D1], the “Absolute DNA transfection efficiency” value in the experiment on HEK293 cells [1] was 0.0%. The “Absolute mRNA transfection efficiency” value in the experiment on HEK293 cells [2] was found to be 0.0%.
As for `CCCCCCCCCCCCCCCCCCSc1nc(NCCN2CCOCC2)nc(SCCCCCCCCCCCCCCC)n1` [Compound S15S18D2], the “Absolute DNA transfection efficiency” value in the experiment on HEK293 cells [1] was 0.1%. Also, in the experiment on HEK293 cells [2], the “Absolute mRNA transfection efficiency” value came out at 0.5%.
Taken in the same sequence, the figures for `CCCCCCCCCCCCCCCCCCSc1nc(NCCN2CCCC2)nc(SCCCCCCCCCCCCCCC)n1` [Compound S15S18D3] were 2.6% and 1.9%.
The like results for `CCCCCCCCCCCCCCCCCCSc1nc(NCCN2CCCCC2)nc(SCCCCCCCCCCCCCCC)n1` [Compound S15S18D4] were, in that order, 0.3% and 0.0%.
Taken in the same sequence, the figures for `CCCCCCCCCCCCCCCCCCSc1nc(NCCN2CCN(C)CC2)nc(SCCCCCCCCCCCCCCC)n1` [Compound S15S18D5] were 0.3% and 0.4%.
As to `CCCCCCCCCCCCCCCCCCSc1nc(NCCCN(C)C)nc(SCCCCCCCCCCCCCCC)n1` [Compound S15S18D6], the “Absolute DNA transfection efficiency” value with HEK293 cells [1] is 1.0%. In the experiment on HEK293 cells [2], the “Absolute mRNA transfection efficiency” value is given as 0.0%.
Taken in the same sequence, the figures for `CCCCCCCCCCCCCCCCCCSc1nc(NCCN(CC)CC)nc(SCCCCCCCCCCCCCCC)n1` [Compound S15S18D7] were 1.5% and 9.3%.
For `CCCCCCCCCCCCCCCCCCSc1nc(NCCCN2CCOCC2)nc(SCCCCCCCCCCCCCCC)n1` [Compound S15S18D8], the “Absolute DNA transfection efficiency” value in the experiment with HEK293 cells [1] is listed as 0.0%. In addition, the “Absolute mRNA transfection efficiency” value with HEK293 cells [2] came out at 0.5%.
Taken in the same sequence, the figures for `CCCCCCCCCCCCCCCCCCSc1nc(NCCCN2CCN(C)CC2)nc(SCCCCCCCCCCCCCCC)n1` [Compound S15S18D9] were 0.3% and 0.0%.
The like results for `CCCCCCCCCCCCCCCCCCSc1nc(NCC2CCN(C)CC2)nc(SCCCCCCCCCCCCCCC)n1` [Compound S15S18D10] were, in that order, 0.3% and 1.8%.
